# Results as given in patent US11266655B2, “Methods and compositions for treating urea cycle disorders” (Camp4 Therapeutics Corporation, priority 2019, dated 2022).
# “And” between values parts separate entries of the source, which are not always exact repeats. Equal values may be shown once. Where a name gives a salt, the structure may show the parent alone. Read-outs that look alike come from different tables or passages of the source.
# Legend:
# SLC25A15 = assay: RNA-seq of compound-treated primary human hepatocytes, SLC25A15 expression; format: cell-based
# OTC [1] = assay: HSP90 or HSP70 inhibitors in primary human hepatocytes, OTC mRNA; format: cell-based; settings: hepatocytes from Donor B, normalized to B2M
# Procedure: (§1) Additional small molecules that inhibit HSP90 or HSP70 were tested in primary human hepatocytes as described in Example 2. HSP90 or HSP70 inhibitors were tested in triplicate at 0.3 μM and 3 μM. The results are shown as the fold change (mRNA FC) in the mRNA levels of OTC and CPS1 genes after treatment compared to an untreated control (DMSO) and the standard deviation (SD). In addition, a dose titration experiment was performed with selected HSP90 inhibitors. Hepatocytes were incubated with increasing concentrations of HSP90 inhibitors and the changes in OTC and CPS1 expression quantified as previously described.
# (§2) HSP90 and HSP70 inhibitors were compared to confirm the role of HSP90 in modulating OTC and CPS1 expression. Hepatocytes from Donor B were incubated with various HSP90 inhibitors or an HSP70 inhibitor, Pifithrin-μ, and then harvested for mRNA quantification. OTC and CPS1 mRNA levels were normalized to B2M.
# CPS1 [2] = assay: HSP90 or HSP70 inhibitors in primary human hepatocytes, CPS1 mRNA; format: cell-based; settings: hepatocytes from Donor B, normalized to B2M
# Procedure: as §1, §2
# SLC25A13 = assay: RNA-seq of compound-treated primary human hepatocytes, SLC25A13 expression; format: cell-based; settings: primary human hepatocytes, triplicate (Table 23, FIG. 15)
# ASS1 = assay: RNA-seq of compound-treated primary human hepatocytes, ASS1 expression; format: cell-based
# OTC [3] = assay: OTC expression modulated by compounds, OTC/GeoMean of housekeeping genes, DMSO = 1 (Table 3A); format: cell-based, human; settings: 10 uM final concentration
# CPS1 [4] = assay: JAK inhibitors at 0.3 and 3 μM in primary human hepatocytes, CPS1 mRNA fold change; format: cell-based; settings: fold change vs DMSO
# Procedure: (§3) Additional small molecules that inhibit JAK1, JAK2, JAK3, or a combination of the JAK proteins were tested in primary human hepatocytes as described in Example 2. JAK inhibitors were tested in triplicate at 0.3 μM and 3 μM. The results are shown as the fold change (mRNA FC) in the mRNA levels of OTC and CPS1 genes after treatment compared to an untreated control (DMSO) and the standard deviation (SD).
# OTC [5] = assay: JAK inhibitors at 0.3 and 3 μM in primary human hepatocytes, OTC mRNA fold change; format: cell-based; settings: fold change vs DMSO
# Procedure: as §3
# ARG1 = assay: RNA-seq of compound-treated primary human hepatocytes, ARG1 expression; format: cell-based
# ASL = assay: RNA-seq of compound-treated primary human hepatocytes, ASL expression; format: cell-based
# urea cycle genes = assay: RNA-seq of primary human hepatocytes, compounds that modulate multiple urea cycle-related genes; format: cell-based
# Procedure: To identify small molecules that modulate urea cycle enzymes, primary human hepatocytes were prepared as a monoculture, and at least one small molecule compound was applied to the cells.
# RNA-seq was performed to determine the effects of the compounds on the expression of urea cycle enzymes in hepatocytes. Fold change was calculated by dividing the level of expression in the cell system that had been perturbed by the level of expression in an unperturbed system. Changes in expression having a p-value ≤0.05 were considered significant.
# Significance was defined as an FPKM ≥1, a log 2 (fold change) ≥0.5, and a q-value of ≤0.05 for selected gene target.
# CPS1 [6] = assay: RNA-seq of compound-treated primary human hepatocytes, CPS1 expression; format: cell-based
# NAGS = format: cell-based, human
# OTC [7] = assay: RNA-seq of compound-treated primary human hepatocytes, OTC expression; format: cell-based; settings: primary human hepatocytes, RNA-seq
# CPS1 [8] = assay: HSP90 inhibitor dose titration in hepatocytes of donors A and B, CPS1 mRNA normalized to B2M; format: cell-based, human; settings: 18 hours
# Procedure: as §1
# (§4) Hepatocytes from two different donors (A and B) were incubated with the various concentrations of HSP90 inhibitors for 18 hours and harvested for mRNA analysis. OTC and CPS1 mRNA were normalized to house keeping gene B2M gene expression.
# OTC [9] = assay: HSP90 inhibitor dose titration in hepatocytes of donors A and B, OTC mRNA normalized to B2M; format: cell-based, human; settings: 18 hours
# Procedure: as §1, §4
# [10] = 1 μM, primary human hepatocytes, triplicate (Table 24, FIG. 16A-B)
# [11] = 3 μM, primary human hepatocytes, triplicate (Table 24, FIG. 16A-B)
# [12] = 10 μM, primary human hepatocytes, triplicate (Table 24, FIG. 16A-B)
smiles,measurement,setting,value
"C=CCNC1=C2C[C@@H](C)C[C@H](OC)[C@H](O)[C@@H](C)/C=C(\C)[C@H](OC(N)=O)[C@@H](OC)/C=C\C=C(/C)C(=O)NC(=CC1=O)C2=O [17-AAG (Tanespimycin), Tanespimycin]",Relative SLC25A15 level vs Untreated (±Standard Deviation),"SLC25A15; 0.3 μM, primary human hepatocytes, triplicate (Table 24, FIG. 16A-B)",1.48 ± 0.01
same,Relative SLC25A15 level vs Untreated (±Standard Deviation),SLC25A15; [10],1.40 ± 0.05
same,Relative SLC25A15 level vs Untreated (±Standard Deviation),SLC25A15; [11],1.51 ± 0.09
same,Relative SLC25A15 level vs Untreated (±Standard Deviation),SLC25A15; [12],1.46 ± 0.14
same,OTC Expression mRNA FC,OTC [1]; 0.3 uM,5.01
same,OTC Expression mRNA FC,OTC [1]; 3 uM,2.84
same,CPS1 Expression mRNA FC,CPS1 [2]; 0.3 uM,1.79
same,CPS1 Expression mRNA FC,CPS1 [2]; 3 uM,2.51
same,Relative SLC25A13 level vs Untreated (±Standard Deviation),SLC25A13; 0.3 μM,1.48 ± 0.01
same,Relative SLC25A13 level vs Untreated (±Standard Deviation),SLC25A13; 1 μM,1.40 ± 0.05
same,Relative SLC25A13 level vs Untreated (±Standard Deviation),SLC25A13; 3 μM,1.51 ± 0.09
same,Relative SLC25A13 level vs Untreated (±Standard Deviation),SLC25A13; 10 μM,1.46 ± 0.14
same,Relative ASS1 level vs Untreated (±Standard Deviation),"ASS1; 0.3 μM, primary human hepatocytes, triplicate (Table 15, FIG. 7)",1.37 ± 0.11
same,Relative ASS1 level vs Untreated (±Standard Deviation),"ASS1; 1 μM, primary human hepatocytes, triplicate (Table 15, FIG. 7)",1.46 ± 0.07
Cc1cc(Nc2nc(N[C@@H](C)c3ncc(F)cn3)ncc2Cl)[nH]n1 [AZD1480],Max Value (OTC/GeoMean of HKs; DMSO = 1),OTC [3],1.46
same,CPS1 mRNA FC,CPS1 [4]; 0.3 uM,1.1
same,CPS1 mRNA FC,CPS1 [4]; 3 uM,1.77
same,OTC mRNA FC,OTC [5]; 0.3 uM,1.63
same,OTC mRNA FC,OTC [5]; 3 uM,2.3
CC1(C)CC[C@]2(C(=O)O)CC[C@]3(C)[C@H](C(=O)C=C4[C@@]5(C)C=C(C#N)C(=O)C(C)(C)[C@@H]5CC[C@]43C)[C@@H]2C1 [Bardoxolone],Max Value (OTC/GeoMean of HKs; DMSO = 1),OTC [3],2.76
N#CC(C#N)=NNc1cccc(Cl)c1 [CCCP],Max Value (OTC/GeoMean of HKs; DMSO = 1),OTC [3],4.06
CNC[C@H](O)c1ccc(O)c(O)c1 [Epinephrine],"Fold change (Log 2) vs untreated, SLC25A15 expression",SLC25A15,1.14 Log 2
same,"Fold change (Log 2) vs untreated, ARG1 expression",ARG1,2.28 Log 2
same,"ASL expression, Fold change (Log 2) vs untreated",ASL,0.6 Log 2
same,Up-regulated Genes,urea cycle genes,"CPS1, ASS1, ASL, ARG1, SLC25A15"
same,number of urea cycle genes whose expression was significantly up-regulated,urea cycle genes,five
same,"Fold change (Log 2) vs untreated, ASS1 expression",ASS1,1.08 Log 2
same,"CPS1 expression, Fold change (Log 2) vs untreated",CPS1 [6],4.85 Log 2
"COc1cccc2c1C(=O)c1c(O)c3c(c(O)c1C2=O)C[C@@](O)(/C(CO)=N/NC(=O)CCCCCN1C(=O)C=CC1=O)C[C@@H]3O[C@H]1C[C@H](N)[C@H](O)[C@H](C)O1 [INNO-206 (aldoxorubicin), aldoxorubicin]",Max Value (OTC/GeoMean of HKs; DMSO = 1),OTC [3],2.36
same,"Fold change (Log 2) vs untreated, NAGS expression","NAGS; primary human hepatocytes, RNA-seq (Table 6)",1.63 Log 2
same,number of urea cycle genes whose expression was significantly up-regulated,"urea cycle genes; primary human hepatocytes, RNA-seq",three
same,Up-regulated Genes,"urea cycle genes; primary human hepatocytes, RNA-seq, urea cycle-related genes significantly increased (Table 10)","NAGS, ASS1, OTC"
same,"Fold change (Log 2) vs untreated, ASS1 expression","ASS1; primary human hepatocytes, RNA-seq (Table 4)",0.58 Log 2
same,"OTC expression, Fold change (Log 2) vs untreated",OTC [7],0.87 Log 2
Cc1cc(Nc2cc(CN3CCOCC3)c3nc(C)c(Cc4ccc(Cl)cc4F)n3n2)n[nH]1 [LY2784544],Max Value (OTC/GeoMean of HKs; DMSO = 1),OTC [3],2.78
CCNC(=O)c1noc(-c2cc(C(C)C)c(O)cc2O)c1-c1ccc(CN2CCOCC2)cc1 [Luminespib],Relative SLC25A15 level vs Untreated (±Standard Deviation),SLC25A15; [11],1.32 ± 0.24
same,Relative SLC25A15 level vs Untreated (±Standard Deviation),SLC25A15; [12],1.55 ± 0.02 and 1.82 ± 0.08
same,Relative NAGS level vs Untreated (±Standard Deviation),"NAGS; 1 μM, primary human hepatocytes, triplicate (Table 21, FIG. 13)",1.32 ± 0.30
same,OTC Expression mRNA FC,OTC [1]; 0.3 uM,0.81
same,OTC Expression mRNA FC,OTC [1]; 3 uM,3.07
same,CPS1 Expression mRNA FC,CPS1 [2]; 0.3 uM,0.86
same,CPS1 Expression mRNA FC,CPS1 [2]; 3 uM,1.39
same,Relative ARGI level vs Untreated (±Standard Deviation),"ARG1; 10 μM, primary human hepatocytes, triplicate (Table 17, FIG. 9)",1.34 ± 0.07
same,Relative SLC25A13 level vs Untreated (±Standard Deviation),SLC25A13; 10 μM,1.55 ± 0.02
O=C(NCCCNc1nc(Nc2cccc(CN3CCOCC3)c2)ncc1C1CC1)C1CCC1 [MRT67307],Max Value (OTC/GeoMean of HKs; DMSO = 1),OTC [3],1.68
CC1(C)CC(=O)c2c(C(F)(F)F)nn(-c3ccc(C(N)=O)c(N[C@H]4CC[C@H](OC(=O)CN)CC4)c3)c2C1 [PF-04929113 (SNX-5422)],Max Value (OTC/GeoMean of HKs; DMSO = 1),OTC [3],1.73
CNC(=O)c1ccc(C)c(-n2c(C)cc(OCc3ccc(F)cc3F)c(Br)c2=O)c1 [PH-797804],Max Value (OTC/GeoMean of HKs; DMSO = 1),OTC [3],1.53
Cl.Cn1c(=O)c(Oc2ccc(F)cc2F)cc2cnc(NC3CCOCC3)nc21 [R1487 Hydrochloride],Max Value (OTC/GeoMean of HKs; DMSO = 1),OTC [3],1.64
same,Relative SLC25A15 level vs Untreated (±Standard Deviation),SLC25A15; [10],1.56 ± 0.16
same,Relative SLC25A15 level vs Untreated (±Standard Deviation),SLC25A15; [12],1.51 ± 0.09
C=CCNc1c(O)cc2c(O)c1C[C@@H](C)C[C@H](OC)[C@H](O)[C@@H](C)/C=C(\C)[C@H](OC(N)=O)[C@@H](OC)/C=C\C=C(/C)C(=O)N2 [Retaspimycin Hydrochloride],"CPS1 mRNA FC, Donor A",CPS1 [8]; 0.01 uM,1.54
same,"CPS1 mRNA FC, Donor B",CPS1 [8]; 0.01 uM,1.29
same,"CPS1 mRNA FC, Donor A",CPS1 [8]; 0.03 uM,3.17
same,"CPS1 mRNA FC, Donor B",CPS1 [8]; 0.03 uM,1.67
same,"CPS1 mRNA FC, Donor A",CPS1 [8]; 0.1 uM,3.76
same,"CPS1 mRNA FC, Donor B",CPS1 [8]; 0.1 uM,2.57
same,Relative SLC25A15 level vs Untreated (±Standard Deviation),SLC25A15; Hydrochloride,1.35 ± 0.27 and 1.31 ± 0.08 and 1.54 ± 0.17 and 1.45 ± 0.01 and 1.60 ± 0.25 and 1.67 ± 0.17 and 1.93 ± 0.13 and 1.77 ± 0.11
same,OTC Expression mRNA FC,OTC [1]; 0.3 uM,2.98
same,OTC Expression mRNA FC,OTC [1]; 3 uM,2.53
same,"OTC mRNA FC, Donor A",OTC [9]; 0.01 uM,1.40
same,"OTC mRNA FC, Donor B",OTC [9]; 0.01 uM,1.31
same,"OTC mRNA FC, Donor A",OTC [9]; 0.03 uM,5.91
same,"OTC mRNA FC, Donor B",OTC [9]; 0.03 uM,1.78
same,"OTC mRNA FC, Donor A",OTC [9]; 0.1 uM,9.07
same,"OTC mRNA FC, Donor B",OTC [9]; 0.1 uM,5.18
same,CPS1 Expression mRNA FC,CPS1 [2]; 0.3 uM,1.23
same,CPS1 Expression mRNA FC,CPS1 [2]; 3 uM,2.24
same,Relative ARGI level vs Untreated (±Standard Deviation),ARG1,1.31 ± 0.12
same,Relative SLC25A13 level vs Untreated (±Standard Deviation),SLC25A13; 0.3 μM,1.35 ± 0.27
same,Relative SLC25A13 level vs Untreated (±Standard Deviation),SLC25A13; 1 μM,1.31 ± 0.08
same,Relative SLC25A13 level vs Untreated (±Standard Deviation),SLC25A13; 3 μM,1.54 ± 0.17
same,Relative SLC25A13 level vs Untreated (±Standard Deviation),SLC25A13; 10 μM,1.45 ± 0.01
same,Relative ASS1 level vs Untreated (±Standard Deviation),ASS1,1.38 ± 0.13
COc1cc2c(cc1OC)CN(C(=O)/C=C/c1c(-c3ccccc3)n(C)c3ncccc13)CC2 [SIS3],Max Value (OTC/GeoMean of HKs; DMSO = 1),OTC [3],1.46
same,"Fold change (Log 2) vs untreated, NAGS expression",NAGS,0.64 Log 2
CSCC[C@H](N)C(=O)N[C@@]1(C(=O)O)CS(=O)(=O)[C@H]2[C@H](C(=O)O)[C@H]21 [pomaglumetad methionil],Max Value (OTC/GeoMean of HKs; DMSO = 1),OTC [3],1.49
